Earlier results as cited in patent publication US5663151A, “Sulfated α-glycolipid derivatives as cell adhesion inhibitors” (Bristol-Myers Squibb Company, priority 1995, dated 1997).

Legend:
[1] = tested on: P-selectin; details: Larsen et al.; Erbe et al.; Aruffo et al.; cited from earlier work
[2] = tested on: P-selectin; details: Skinner et al.; cited from earlier work
[3] = tested on: P-selectin; details: cells grown in the presence of sodium selenate; cited from earlier work

Molecule	P-selectin has been shown to bind [1]	other results
CC(=O)N[C@H]1C(O)O[C@H](CO)[C@@H](O[C@@H]2O[C@H](CO)[C@H](O)[C@H](O)[C@H]2O)[C@@H]1O[C@@H]1O[C@@H](C)[C@@H](O)[C@@H](O)[C@@H]1O (stereo partly shown) [Le^x]	shown to bind	–
sialyl-Le^x	shown to bind	–
fucoidan	–	inhibit P-selectin mediated adhesion [2]: inhibit P-selectin mediated adhesion
O=[Se](=O)(O)O [sodium selenate]	–	binding of P-selectin to myeloid cell lines [3]: can be inhibited
